Reference: patent US20030166651A1, “Novel 3-substituted 1,2,4-benzotriazines, a method for their production and the use thereof” (priority 1999, published 2003)
In brackets after ≈: the same amount, converted by molar mass.

What was measured:
Format in all cases: cell-based
HeLa = test: Inhibition of cell growth, HeLa cells; conditions: three days at 37° C., microscope assessment; for IC50: Homo sapiens, 72 h, read-out: IC50 value (50% inhibition of cell growth)
Method: (§1) Aqueous sterile solutions of each substance to be tested are injected into 1 ml of the respective cell stock solution at concentration steps of 2-50 μg each time. Subsequently, the test chambers are developed together with a non-treated reference chamber for three days at 37° C. Assessment is performed using a microscope. Cell growth or cell decomposition (condition of cell membrane and cell nucleus) is compared to non-treated reference cells.

Hep2 = test: Inhibition of cell growth, Hep2 cells; conditions: three days at 37° C., microscope assessment; for IC50: Homo sapiens, HEp-2, 72 h, read-out: IC50 value (50% inhibition of cell growth)
Method: as §1

Peritoneal carcinoma = test: Inhibition of cell growth, peritoneal carcinoma cells; conditions: 72 h, three days at 37° C., microscope assessment, read-out: IC50 value (50% inhibition of cell growth)
Method: as §1

Pleural carcinoma = test: Inhibition of cell growth, pleural carcinoma cells; conditions: 72 h, three days at 37° C., microscope assessment, read-out: IC50 value (50% inhibition of cell growth)
Method: as §1

[1] = system: permanent cell cultures such as HeLa, Hep2 cells, of peritoneal carcinoma and pleural carcinoma cells; test: Inhibition of cell growth, overall statement on the tumor cell cultures
Method: as §1

Compound | IC50 value (50% inhibition of cell growth) (HeLa) | IC50 value (50% inhibition of cell growth) (Hep2) | IC50 (HeLa) | IC50 (Hep2) | IC50 (Peritoneal carcinoma) | IC50 (Pleural carcinoma) | inhibition of cell growth / antitumor activity, result in words [1]
OC[C@@H](O)[C@@H](O)[C@H](O)c1nnc2ccc(Cl)cc2n1 [Compound k, 3-(D-arabino-tetritol-1-yl)-6-chlorobenzo-1,2,4-triazine] | 250 µg/mL |  |  |  |  |  | 
OC[C@@H](O)[C@@H](O)[C@H](O)c1nnc2ccccc2n1 [Compound h, 3-(D-arabino-tetritol-1-yl)-1,2,4-benzotriazine] | 150 µg/mL | 150 µg/mL |  |  |  |  | 
COC(=O)Cc1nnc2ccc(Cl)cc2n1 [Compound b, 3-(methoxycarbonylmethyl)-6-chlorobenzo-1,2,4-triazine] |  |  | 160 µg/mL (≈ 673 µM) | 120 µg/mL (≈ 505 µM) | 150 µg/mL (≈ 631 µM) | 500 µg/mL (≈ 2100 µM) | 
CC(C)NC(=O)Cc1nnc2ccccc2n1 [Compound l, 3-(isopropylaminocarbonylmethyl)-1,2,4-benzotriazine] |  |  |  |  |  |  | preferred activity
CCOC(=O)Cc1nnc2ccc(Br)cc2n1 [Compound g, 3-(ethoxycarbonylmethyl)-6-bromobenzo-1,2,4-triazine] |  |  | 8 to 16 µg/mL (≈ 27 to 54 µM) | 8 to 16 µg/mL (≈ 27 to 54 µM) | 35 µg/mL (≈ 118 µM) |  | preferred activity
COC(=O)Cc1nnc2ccc(Cl)c(N)c2n1 [Compound d, 3-(methoxycarbonylmethyl)-5-amino-6-chlorobenzo-1,2,4-triazine] |  |  | 50 µg/mL (≈ 198 µM) | 500 µg/mL (≈ 1980 µM) | 25 to 30 µg/mL (≈ 98.9 to 119 µM) | 500 µg/mL (≈ 1980 µM) | 
COC(=O)Cc1nnc2cccc(Cl)c2n1 [Compound c, 3-(methoxycarbonylmethyl)-5-chlorobenzo-1,2,4-triazine] |  |  | 8 to 16 µg/mL (≈ 33.7 to 67.3 µM) | 16 µg/mL (≈ 67.3 µM) | 12 µg/mL (≈ 50.5 µM) |  | preferred activity
3-(D-galacto-tetritol-1-yl)-1,2,4-benzotriazine [Compound i] | 400 µg/mL |  |  |  |  |  | 
